Entries after “also recorded” stand apart in the source; their conditions may differ.
Tests used:
[1] = tested on: HEK293 cells; experiment: MM-induced intracellular calcium responses (Fluo-4) after 400 nm stimulation; type: cell-based
Procedure: To investigate cellular responses to the actuation of MM, live-cell calcium tracking were employed. HEK293 cells were treated with the fluorescent intracellular calcium indicator Fluo-4 and loaded with MM. The structures of the MM employed in this study are shown in FIG. 1B, and the calcium responses of cells treated with fast-rotating MM 1 are shown in FIG. 1C. […] In the presence of the vehicle only, no calcium responses were evoked by the same laser treatment (FIG. 2).
Cell Culture and Preparation of Cells for Microscopy: HEK293 cells were chosen as the principal model system due to their prevalence in electrophysiological interrogation. […] HEK293 cells, HeLa cells, and N2A cells were cultured in DMEM (10% FBS, 1% penicillin/streptomycin) and passaged at <90% confluence. To grow cardiomyocytes, a dissColved rat heart (TransnetYX©) was triturated, centrifuged, and resuspended in cardiomyocyte growth medium (TransnetYX© catalog #SKU-NBCG) and seeded at a concentration of 60,000 cells cm^−2. Growth substrates were pre-treated with 1% gelatin solution for 3 h, then washed with PBS. Cardiomyocytes were allowed to grow for 4 days, after which the growth medium was exchanged for cardiomyocyte maintenance medium (TransnetYX© catalog #SKU-NBCM). Experiments were conducted from day 4 to day 6.
Imaging was conducted in imaging extracellular buffer (iECB; 119 mM NaCl, 5 mM KCl, 10 mM HEPES, 2 mM CaCl2, 1 mM MgCl2 (pH 7.2); 320 mOsm). Imaging in calcium-free medium was conducted in phosphate-buffered saline. Cells were prepared for imaging by seeding a 35 mm Ibidi imaging dish with ~50,000 cells in 1 mL of DMEM, and grown at 37 °C, 5% CO2 for 2 days. Prior to imaging, cells were incubated with dyes and/or molecules resuspended in complete growth medium at the appropriate concentration (MM 1 (8 μM), MM 2 (8 μM), MM 3 (24 μM), MM 4 (8 μM), Fluo-4 (2 μM)). MM and Fluo-4 were loaded into cells for 45 min. Cells treated with thapsigargin were exposed for 30 min after MM and Fluo-4 loading. Cells treated with organelle-targeting dyes were exposed for 5 min after MM loading. Ruthenium red and Gd^3+ were included in the imaging medium during stimulation and were associated with cells for 10 min prior to imaging. At the end of incubation, this medium was replaced with the iECB. Unless otherwise specified, all experiments were replicated in triplicate.
In Vitro Imaging and Stimulation: Cells were loaded in a Nikon A1-Rsi confocal system mounted on a widefield Ti-E fluorescence microscope. Imaging was conducted using a 60× water immersion objective (NA of 1.27, 0.17 mm working distance). Green fluorophores (Fluo-4, MitoTracker Green) were excited using a 488 nm photodiode laser. Red fluorophores (ER-Tracker-Red, PI) were excited using a 561 nm photodiode laser. Deep red fluorophores (cellMask plasma membrane stain) were excited using a 630 nm photodiode laser. Laser stimulation for in vitro experiments was performed with a 400 nm photodiode laser (Coherent OBIS™ LX SF) operating in a fluorescence-recovery-after-photobleaching (FRAP) experiment mode, delivering up to 6.4×10^2 W cm^−2 at sample level. Unless otherwise specified, all experiments were conducted using a stimulus irradiance of 3.2×10^2 W cm^−2. Cardiomyocyte experiments were conducted using a stimulus irradiance of 5.1×10^2 W cm^−2. Power was calibrated using a Thor Labs S130C laser power meter. Stimulation was targeted to a circular area of diameter 5 μm in a 250 ms pulse, during which the laser rasters across the entire region of interest. […] Fluo-4 fluorescence was collected for 30 s before and 2 min after stimulation. Images were collected using a Galvano scanner operating at 0.94 fps. In selected experiments, images were also collected using a resonant scanner operating at 7.7 fps.
Data Analysis—In Vitro: Data were analyzed using custom-written Python scripts. Fluorescence traces of calcium indicator Fluo-4 from cells were imported and processed via the Pandas library. […]

[2] = MM rotation rate (thermodynamics of the thermal helix inversion step); type: physicochemical; conditions: Table 1; from thermodynamics of thermal helix inversion
Procedure: (§1) Table 1. Properties of MM 1-4. Partition coefficients and total polar surface area were calculated using the molInspiration online calculator. milogP represents the logarithm of the partition coefficient between octanol and water, used to represent hydrophobicity (higher values are more hydrophobic). Rotation rates were provided using the thermodynamics of the thermal helix inversion step. MM structures provided for reference.
Effects of Rotation Speed and Directionality: The propensity for unidirectional MM to rotate and exert mechanical force on their environment depend principally on two factors: the rotation rate and the photoconversion efficiency. Both of these depend on MM structure. The rotation rate is determined by the half-life of the thermal helix inversion, which is driven by the steric interactions governing the passage of the rotor over the stator (Pollard et al., 2007). The photoconversion efficiency, also known as the quantum yield of photoisomerization, or ΦP, represents the proportion of photons absorbed by the molecule that drive molecular rotation (as opposed to fluorescence or non-radiative decay processes). ΦP is primarily influenced by the electronic structure. MM directionality can also be influenced by structure, as the driving force for unidirectional rotation depends upon the presence of a stereogenic center.

[3] = Extinction coefficient by UV-Vis; type: physicochemical; conditions: UV-Vis in spectral-grade water, 16 μM
Procedure: FIG. 13—Sample UV-Vis spectra of each MM taken at 16 μM in spectral-grade water.
as §1

[4] = 8 μM MM, 400 nm, 3.2×10^2 W cm^−2, 250 ms

| SMILES | Intracellular calcium response (Fluo-4) [1, 4] | Decay kinetics of calcium response ([1]; 8 μM, 400 nm light, 250 ms) | Time to peak of calcium transient after stimulation ([1]; 8 μM, 400 nm light, 250 ms) | Repeatability of calcium responses ([1]; 3.2×10^2 W cm^−2, 250 ms, multiple stimulations) | Light power dependence of calcium response ([1]; 250 ms pulse, 5 μm diameter) | Propagation of calcium response to adjacent cells ([1]; MM 1, 400 nm light) | Signal amplitude compared with other MM ([1]; MM 1 vs MM 2) | Rotation rate [2] | Extinction Coeff @ 400 nm [3] | Intracellular calcium response (Fluo-4) ([1]; MM 3 at 24 μM, 6.4×10^2 W cm^−2) |
| --- | --- | --- | --- | --- | --- | --- | --- | --- | --- | --- |
| CC1Cc2ccc3ccccc3c2C1=C1c2ccccc2Sc2cc(NCCN(C)C)ccc21 (stereo not drawn) [MM 1] | increased Fluo-4 fluorescence in the targeted cell; also recorded: elicited rapid increases in intracellular calcium; also recorded: elicited the strongest signaling responses in vitro | decayed over the next minute | 10 to 20 s | repeatable | higher response amplitude at higher irradiance | Calcium responses were observed to propagate to adjacent cells | reached a higher amplitude than those elicited by MM 2 | 3 × 10^6 Hz | ~11,000 L mol^−1cm^−1 | – |
| CC1Cc2cc(NCCN(C)C)c3ccccc3c2C1=C1c2ccccc2-c2ccccc21 (stereo not drawn) [MM 3] | – | – | – | – | – | – | – | 0.1 Hz | ~7,500 L mol^−1cm^−1 | elicited no change in calcium activity upon irradiation; also recorded: did not elicit any noticeable responses in vitro |
| CN(C)CCNc1ccc2c(c1)Sc1ccccc1C2=C1CCc2ccc3ccccc3c21 [MM 4] | elicited only small changes in calcium concentration; also recorded: elicited inconsistent and weak responses | – | – | – | – | – | – | 3 × 10^6 Hz | ~13,000 L mol^−1cm^−1 | – |
